Source: ChEMBL document CHEMBL1817578, “2-({6-[(3R)-3-amino-3-methylpiperidine-1-yl]-1,3-dimethyl-2,4-dioxo-1,2,3,4-tetrahydro-5H-pyrrolo[3,2-d]pyrimidine-5-yl}methyl)-4-fluorobenzonitrile (DSR-12727): a potent, orally active dipeptidyl peptidase IV inhibitor without mechanism-based inactivation of CYP3A” (Bioorg Med Chem, 2011)

Tests used:
Dipeptidyl peptidase 4 = Dipeptidyl peptidase 4 (Homo sapiens, UniProt P27487); test: Inhibition of DPP4 in human plasma assessed as formation of 7-amino-4-methylcoumarin from glycyl-L-proline 4-methylcoumaryl-7-amide by fluorescence assay
Cytochrome P450 1A2 = target: T1, Cytochrome P450 1A2 (Homo sapiens, UniProt P05177); test: Inhibition of CYP1A2; assay type: ADME
T1 sequence (P05177 whole entry): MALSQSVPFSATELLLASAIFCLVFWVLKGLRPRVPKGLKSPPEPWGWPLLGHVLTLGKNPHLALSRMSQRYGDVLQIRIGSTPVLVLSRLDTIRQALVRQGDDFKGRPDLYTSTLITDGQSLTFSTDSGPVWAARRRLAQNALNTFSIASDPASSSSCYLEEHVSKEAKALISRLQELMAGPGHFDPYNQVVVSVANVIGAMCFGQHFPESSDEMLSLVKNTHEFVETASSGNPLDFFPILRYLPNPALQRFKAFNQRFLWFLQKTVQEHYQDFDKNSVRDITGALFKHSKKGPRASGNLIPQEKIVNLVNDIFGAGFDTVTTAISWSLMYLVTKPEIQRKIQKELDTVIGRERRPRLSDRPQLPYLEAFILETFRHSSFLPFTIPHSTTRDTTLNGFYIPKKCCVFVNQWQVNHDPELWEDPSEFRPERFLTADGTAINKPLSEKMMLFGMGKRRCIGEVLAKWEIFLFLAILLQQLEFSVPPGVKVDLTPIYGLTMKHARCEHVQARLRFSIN

Cytochrome P450 3A4 = Cytochrome P450 3A4 (Homo sapiens, UniProt P08684); test: Inhibition of CYP3A4; assay type: ADME
Cytochrome P450 2D6 = Cytochrome P450 2D6 (Homo sapiens, UniProt P10635); test: Inhibition of CYP2D6; assay type: ADME
Chain of Cytochrome P450 2D6 (P10635 whole entry): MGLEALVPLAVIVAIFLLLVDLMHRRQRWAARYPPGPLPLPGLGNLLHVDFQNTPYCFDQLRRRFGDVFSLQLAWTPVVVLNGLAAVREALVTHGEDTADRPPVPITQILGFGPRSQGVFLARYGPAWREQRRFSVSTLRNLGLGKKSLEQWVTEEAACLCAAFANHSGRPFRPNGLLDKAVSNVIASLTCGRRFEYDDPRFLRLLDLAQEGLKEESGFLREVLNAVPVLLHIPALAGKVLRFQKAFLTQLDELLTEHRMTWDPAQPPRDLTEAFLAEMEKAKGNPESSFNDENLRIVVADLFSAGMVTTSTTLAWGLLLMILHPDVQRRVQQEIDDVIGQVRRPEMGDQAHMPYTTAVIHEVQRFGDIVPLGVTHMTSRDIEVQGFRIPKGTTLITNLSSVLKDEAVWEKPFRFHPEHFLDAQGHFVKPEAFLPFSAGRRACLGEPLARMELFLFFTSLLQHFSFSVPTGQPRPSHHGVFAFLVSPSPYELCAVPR

Chain of Dipeptidyl peptidase 4 (P27487 whole entry): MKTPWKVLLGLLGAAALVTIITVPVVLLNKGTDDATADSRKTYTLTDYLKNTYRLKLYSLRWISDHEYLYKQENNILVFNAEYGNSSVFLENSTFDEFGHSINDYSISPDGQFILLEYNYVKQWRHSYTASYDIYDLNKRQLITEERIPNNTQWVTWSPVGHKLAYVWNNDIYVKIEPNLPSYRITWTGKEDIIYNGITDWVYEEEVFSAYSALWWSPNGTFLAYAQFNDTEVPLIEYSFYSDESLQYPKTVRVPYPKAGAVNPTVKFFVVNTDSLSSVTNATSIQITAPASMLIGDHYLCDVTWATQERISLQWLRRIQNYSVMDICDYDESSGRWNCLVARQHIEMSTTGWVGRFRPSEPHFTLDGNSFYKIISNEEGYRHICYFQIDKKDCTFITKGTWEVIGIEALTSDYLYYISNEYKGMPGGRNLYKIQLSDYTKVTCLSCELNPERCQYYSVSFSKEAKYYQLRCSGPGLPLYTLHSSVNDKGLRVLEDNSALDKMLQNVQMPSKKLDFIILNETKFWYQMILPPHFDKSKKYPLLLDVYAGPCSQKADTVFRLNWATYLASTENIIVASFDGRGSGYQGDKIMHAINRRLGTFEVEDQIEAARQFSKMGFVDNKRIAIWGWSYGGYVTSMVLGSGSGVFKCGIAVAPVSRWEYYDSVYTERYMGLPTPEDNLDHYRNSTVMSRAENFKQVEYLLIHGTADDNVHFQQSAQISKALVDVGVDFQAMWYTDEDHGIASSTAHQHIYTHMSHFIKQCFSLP
Chain of Cytochrome P450 3A4 (P08684 whole entry): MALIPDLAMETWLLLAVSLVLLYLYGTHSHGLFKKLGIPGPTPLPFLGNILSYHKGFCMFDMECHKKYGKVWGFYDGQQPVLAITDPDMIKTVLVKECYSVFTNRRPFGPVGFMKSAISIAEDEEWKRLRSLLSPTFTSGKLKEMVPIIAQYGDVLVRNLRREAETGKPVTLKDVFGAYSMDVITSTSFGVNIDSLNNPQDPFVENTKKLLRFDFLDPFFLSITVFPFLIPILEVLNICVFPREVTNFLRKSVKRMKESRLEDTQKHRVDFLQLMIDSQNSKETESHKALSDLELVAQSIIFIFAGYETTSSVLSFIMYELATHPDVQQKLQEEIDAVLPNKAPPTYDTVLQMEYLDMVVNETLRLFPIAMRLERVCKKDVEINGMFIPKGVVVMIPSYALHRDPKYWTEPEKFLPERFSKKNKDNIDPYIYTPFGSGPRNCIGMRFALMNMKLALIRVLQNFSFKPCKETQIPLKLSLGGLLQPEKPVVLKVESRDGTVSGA

Row | IC50 (Dipeptidyl peptidase 4) [µM] | IC50 (Cytochrome P450 1A2) [µM] | IC50 (Cytochrome P450 3A4) [µM] | IC50 (Cytochrome P450 2D6) [µM] | SMILES
1 | > 1 | – | – | – | CC[C@]1(N)CCCN(c2cc3c(c(=O)n(C)c(=O)n3C)n2Cc2cc(F)ccc2C#N)C1
2 | 0.00034 | 14.7 | 1.6 | 7.5 | Cn1c(=O)c2c(cc(N3CCC[C@@H](N)C3)n2Cc2cc(F)ccc2C#N)n(C)c1=O
3 | 0.026 | – | – | – | CC[C@@]1(N)CCCN(c2cc3c(c(=O)n(C)c(=O)n3C)n2Cc2cc(F)ccc2C#N)C1
